Experimental data as given in US20240261418A1, “SOS1 DEGRADING AGENT AND PREPARATION METHOD THEREFOR AND APPLICATION THEREOF” (SHANGHAI LEADINGTAC PHARMACEUTICAL CO. LTD., priority 2021, published 2024).

Experiments:
[1] = tested on: KRAS G13D mutant human colorectal adenocarcinoma epithelial cells DLD-1; assay: 3D cell proliferation inhibition assay, DLD-1; assay type: cell-based; settings: DLD-1, 168 h, 7 days, CTG
Text: (§1) Test Example 4: 3D Cell Proliferation Inhibition Assay
(§2) The inhibitory effect of the compounds on the proliferation of 3D cells was investigated on KRAS G12C mutant human non-small cell lung cancer cells NCI-H358 (ATCC or Stem Cell Bank, Chinese Academy of Sciences), KRAS G12D mutant human metastatic pancreatic adenocarcinoma cells AsPC-1 (ATCC), KRAS G12V mutant human lung adenocarcinoma cells NCI-H441 (ATCC), and KRAS G13D mutant human colorectal adenocarcinoma epithelial cells DLD-1 (ATCC). The specific procedures were as follows:
(§3) 200 nL of compound solution diluted in a gradient was added to corresponding microwells of a 384-well low-adsorption microwell plate (Corning, 3657) using an Echo sonic pipetting system (Labcyte, Echo 550), so that the final concentration of the test compound in the reaction system was in a range of 20000 nM-0.008 nM. Then 40 μL of cells at a certain density were added to the corresponding microplate. In addition to test wells for the test compounds, both a DMSO control well and a medium control well were set, with the DMSO control well containing DMSO and cells and the medium well containing only medium. […] The plate was incubated at room temperature for 30 min and read on a microplate reader EnVision using the chemiluminescence program. […]

[2] = tested on: KRAS G12V mutant human lung adenocarcinoma cells NCI-H441; assay: 3D cell proliferation inhibition assay, NCI-H441; assay type: cell-based; settings: NCI-H441, 168 h, 7 days, CTG
Text: as §1, §2, §3

Row | IC50 [1] [µM] | IC50 [2] [µM] | SMILES
1 | 0.05 to 0.1 | ≤ 0.015 | COc1cc2nc(C)nc(N[C@H](C)c3cc(-c4c(Cl)cccc4CN(C)C)cs3)c2cc1[C@H]1CC[C@H](C(=O)N2CCC(CCOCC3CCN(C(=O)c4ccc(Cl)c(N5CCC(=O)NC5=O)c4)CC3)CC2)CC1 [Example 5, 1-(2-chloro-5-(4-((2-(1-((1R,4R)-4-(4-(((R)-1-(4-(2-chloro-6-((dimethylamino)methyl)phenyl)thien-2-yl)ethyl)amino)-7-methoxy-2-methylquinazolin-6-yl)cyclohexane-1-carbonyl)piperidin-4-yl)ethoxy)methyl)piperidine-1-carbonyl)phenyl)dihydropyrimidine-2,4(1H,3H)-dione]
2 | 0.03 to 0.05 | 0.05 to 0.1 | COc1cc2nc(C)nc(N[C@H](C)c3cc(-c4c(Cl)cccc4CN(C)C)cs3)c2cc1[C@H]1CC[C@H](C(=O)N2CCN(CC3CCC4(CC3)CCN(C(=O)c3ccc(Cl)c(N5CCC(=O)NC5=O)c3)CC4)CC2)CC1 [Example 1, 1-(2-chloro-5-(9-((4-((1R,4R)-4-(4-(((R)-1-(4-(2-chloro-6-((dimethylamino)methyl)phenyl)thien-2-yl)ethyl)amino)-7-methoxy-2-methylquinazolin-6-yl)cyclohexane-1-carbonyl)piperazin-1-yl)methyl)-3-azaspiro[5.5]undecane-3-carbonyl)phenyl)dihydropyrimidine-2,4(1H,3H)-dione]
